Test results reported in patent publication US20230365563A1, “QUINAZOLINE COMPOUND AND APPLICATION THEREOF” (SHANGHAI PHARMACEUTICALS HOLDING CO., LTD., priority 2020, published 2023).
Where a name gives a salt, the structure may show the parent alone.

Assays:
[1] = molecular target: T1, KRAS_G12D and cRAF (Homo sapiens, UniProt P01116, G12D); assay: Inhibition of KRAS_G12D/cRAF binding (Cisbio binding kit, 665/615 ratio), Effect Embodiment B; details: read-out: GTP-KRAS-G12D:CRAF IC50
T1 construct: purchased
In short: (§1)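 Compounds are tested over eleven threefold dilution steps in duplicate, with final DMSO at 1%.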

[2] = molecular target: T2, KRAS-G12D and SOS1 (Homo sapiens, UniProt P01116, G12D); assay: Inhibition of KRAS-G12D/SOS1 binding (Cisbio binding kit, 665/615 ratio), Effect Embodiment A; details: read-out: GTP-KRAS-G12D:SOS1 IC50
T2 construct: purchased
In short: as §1

[3] = molecular target: T3, KRAS_WT and SOS1 (Homo sapiens, UniProt P01116); assay: Inhibition of KRAS_WT/SOS1 binding (Cisbio binding kit, 665/615 ratio), Effect Embodiment C; details: read-out: GTP-KRAS-WT:SOS1 IC50
T3 construct: purchased
In short: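 Compounds tested as 3-fold, 11-point dilutions in duplicate at 1% DMSO final against the KRAS_WT/SOS1 binding system. IC50 derived by nonlinear regression fit.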

Compound | IC50 [1] | IC50 [2] | IC50 [3]
CN(C)CCCNc1nc(N2C[C@H]3CC[C@@H](C2)N3)c2cc(Cl)c(-c3cc(O)cc4ccccc34)c(F)c2n1 (single isomer, unassigned) [Compound 55a, (S or R) 4-(4-((1R,5S)-3,8-diazabicyclo[3.2.1]octan-3-yl)-6-chloro-2-((3-(dimethylamino)propyl)amino)-8-fluoroquinazolin-7-yl)naphthalen-2-ol] | 9950 nM | 1120 nM | > 100000 nM
C[C@@H](COc1nc(N2CC3CCC(C2)N3)c2cc(Cl)c(-c3cc(O)cc4ccccc34)c(F)c2n1)CN1C[C@@H](C)O[C@H](C)C1 (single isomer, unassigned) [Compound 216, 4-((S or R)-4-((1R,5S)-3,8-diazabicyclo[3.2.1]octan-3-yl)-6-chloro-2-((R)-3-((2R,6R)-2,6-dimethylmorpholinyl)-2-methylpropoxy)-8-fluoroquinazolin-7-yl)naphthalen-ol diformate] | 49.4 nM | 51.8 nM | 2020 nM
Oc1cc(-c2c(Cl)cc3c(N4CC5CCC(C4)N5)nc(OC[C@@]45CCCN4C[C@H](F)C5)nc3c2F)c2ccccc2c1 (single isomer, unassigned) [Compound 176, 4-((R or S)-4-((1R,5S)-3,8-diazabicyclo[3.2.1]octan-3-yl)-6-chloro-8-fluoro-2-((2R,7aS)-2-fluorotetrahydro-1H-pyrrolin-7a(5H)-yl)methoxy)quinazolin-7-yl)naphthalenol formate] | 6.98 nM | 13.6 nM | 28 nM
Oc1cc(-c2c(Cl)cc3c(N4CC5CCC(C4)N5)nc(OCC45CCN(CC4)CC5)nc3c2F)c2ccccc2c1 (single isomer, unassigned) [Compound 260, 4-((S or R)-4-((1R,5S)-3,8-diazacyclo[3.2.1]octan-3-yl)-6-chloro-8-fluoro-2-(quinin-4-ylmethoxy)quinazolin-7-yl)naphthalen-2-ol diformate] | 157 nM | 25.9 nM | 4420 nM
CN1CCCC1CCOc1nc(N2CC3CCC(C2)N3)c2cc(Cl)c(-c3cc(O)cc4ccccc34)c(F)c2n1 (single isomer, unassigned) [Compound 96b, 4-((S or R)-4-((1R,5S)-3,8-diazabicyclo[3.2.1]octan-3-yl)-6-chloro-8-fluoro-2-(2-((R or S)-1-methylpyrrolidin-2-yl)ethoxy)quinazolin-7-yl)naphthalen-2-ol] | 156 nM | 34.3 nM | 2970 nM
CO[C@@H](COc1nc(N2CC3CCC(C2)N3)c2cc(Cl)c(-c3cc(O)cc4ccccc34)c(F)c2n1)CN1C2CCC1COC2 (single isomer, unassigned) [Compound 182, (4R or S)-4-(2-((2R)-3-(3-oxa-8-azabicyclo[3.2.1]octan-8-yl)-2-methoxypropoxy)-4-((1R,5S)-3,8-diazabicyclo[3.2.1]octan-3-yl)-6-chloro-8-fluoroquinazolin-7-yl)naphthalen-2-ol diformate] | 219 nM | 53.3 nM | 3400 nM
((3R or 3S, 7aR or 7aS)-7a-((4-((1R,5S)-3,8-diazabicyclo[3.2.1]octan-3-yl)-6-chloro-8-fluoro-7-(3-hydroxynaphthalen-1-yl)quinazolin-2-yl)oxy)methyl)hexahydro-1H-pyrrolidin-3-yl)dimethylcarbamate tristrifluoroacetate [Compound 232b] | 14.8 nM | 13.5 nM | 66.2 nM
CN1CC(C)(C)C[C@H]1COc1nc(N2CC3CCC(C2)N3)c2cnc(-c3cc(O)cc4ccccc34)c(F)c2n1 [Compound 139, 4-(4-((1R,5S)-3,8-diazabicyclo[3.2.1]octan-3-yl)-8-fluoro-2-((S)-1,4,4-trimethylpyrrolidin-2-yl)methoxy)pyridinyl[4,3-d]pyrimidin-7-yl)naphthalen-2-ol diformate] | 129 nM | 37.2 nM | 1920 nM
CN1CC2(CC2)C[C@H]1COc1nc(N2CC3CCC(C2)N3)c2cnc(-c3cc(O)cc4ccccc34)c(F)c2n1 [Compound 137, 4-(4-((1R,5S)-3,8-diazabicyclo[3.2.1]octan-3-yl)-8-fluoro-2-((S)-5-methyl-5-azaspiro[2.4]heptan-6-yl)methoxy)pyridin[4,3-d]pyrimidin-7-yl)naphthalen-2-ol diformate] | 10.7 nM | 13.3 nM | 123 nM
Oc1cc(-c2c(Cl)cc3c(N4CC5CCC(C4)N5)nc(OCCCN4CCOCC4)nc3c2F)c2ccccc2c1 (single isomer, unassigned) [Compound 54a, 4-((S or R)-4-((1R,5S)-3,8-diazabicyclo[3.2.1]octan-3-yl)-6-chloro-8-fluoro-2-(3-morpholinopropoxy)quinazolin-7-yl)naphthalen-2-ol] | 103 nM | 26.2 nM | 1190 nM
CN(C)C1CN(c2nc(N3CC4(CCNC4)C3)c3cc(Cl)c(-c4cc(O)cc5ccccc45)c(F)c3n2)C1 (single isomer, unassigned) [Compound 8a, (R or S)-4-(6-chloro-2-(3-(dimethylamino)azetidin-1-yl)-8-fluoro-4-(2,6-diazaspiro[3.4]octan-2-yl)quinazolin-7-yl)naphthalen-2-ol] | 1170 nM | 461 nM | 5340 nM
CN1C[C@@H]2C[C@@H]2[C@H]1COc1nc(N2CC3CCC(C2)N3)c2cc(Cl)c(-c3cc(O)cc4ccccc34)c(F)c2n1 (single isomer, unassigned) [Compound 183, 4-((R or S)-4-((1R,5S)-3,8-diazabicyclo[3.2.1]octan-3-yl)-6-chloro-8-fluoro-2-((1S,2S,5R)-3-methyl-3-azabicyclo[3.1.0]hexan-2-yl)methoxy)quinazolin-7-yl)naphthalen-2-ol diformate] | 88.9 nM | 29.2 nM | 1510 nM
C[C@@H](COc1nc(N2CC3CCC(C2)N3)c2cc(Cl)c(-c3cc(O)cc4ccccc34)c(F)c2n1)CN1C[C@@H](C)OC[C@H]1C (single isomer, unassigned) [Compound 236, 4-((S or R)-4-((1R,5S)-3,8-diazacyclo[3.2.1]octan-3-yl)-6-chloro-2-((R)-3-((2R,5R)-2,5-dimethylmorpholinyl)-2-methylpropoxy)-8-fluoroquinazolin-7-yl)naphthalen-2-ol formate] | 15 nM | 19.1 nM | 309 nM
CN1CCCC[C@H]1COc1nc(N2CC3CCC(C2)N3)c2cc(Cl)c(-c3cc(O)cc4ccccc34)c(F)c2n1 (single isomer, unassigned) [Compound 56a, 4-((S or R)-4-((1R,5S)-3,8-diazabicyclo[3.2.1]octan-3-yl)-6-chloro-8-fluoro-2-((S)-1-methylpiperidin-2-yl)methoxy)quinazolin-7-yl)naphthalen-2-ol dihydrochloride] | 461 nM | 64.1 nM | 14000 nM
Oc1cc(-c2c(Cl)cc3c(N4CC5CCC(C4)N5)nc(OCC4(CN5C6CCC5COC6)CC4)nc3c2F)c2ccccc2c1 (single isomer, unassigned) [Compound 119, 4-((7S or R)-2-((1-((3-oxa-8-azabicyclo[3.2.1]octan-8-yl)methyl)cyclopropyl)methoxy)-4-((1R,5S)-3,8-diazabicyclo[3.2.1]octan-3-yl)-6-chloro-8-fluoroquinazolin-7-yl)naphthalen-2-ol formate] | 14.4 nM | 14.5 nM | 160 nM
